Data published in US20230322846A9, “NEUROACTIVE STEROIDS AND THEIR METHODS OF USE” (SAGE THERAPEUTICS, INC., priority 2018, published 2023).

These compounds were tested against [35S]-TBPS binding, rat brain cortical membranes (assay: Steroid inhibition of [35S]-TBPS binding). Conditions: 3 nM [35S]-TBPS, in the presence of 5 mM GABA.
Method in brief: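 In the presence of […], compounds (DMSO 0.5% final) competed with 3 nM [35S]-TBPS for Sprague-Dawley rat cortical membranes, pH 7.4 phosphate buffer, 90 min, room temperature. Filtration and scintillation counting; specific binding defined by […]; IC50 and maximal inhibition fitted per experiment, averaged as mean ± SEM.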

**Q.** How did the IC50 turn out when CCC[C@@]1(O)CC[C@H]2[C@@H](CC[C@@H]3[C@@H]2CC[C@]2(C)[C@@H]([C@H](C)Cn4nnc(C)n4)CC[C@@H]32)C1 [Example 330, (3R,5S,8R,9R,10S,13S,14S,17R)-13-methyl-17-((S)-1-(5-methyl-2H-tetrazol-2-yl)propan-2-yl)-3-propylhexadecahydro-1H-cyclopenta[a]phenanthren-3-ol] was run?
**A.** ≥ 10000 nM

**Q.** How did the IC50 turn out when CCC[C@@]1(O)CC[C@H]2[C@@H](CC[C@@H]3[C@@H]2CC[C@]2(C)[C@@H]([C@H](C)Cn4nnnc4C)CC[C@@H]32)C1 [Example 331, (3R,5S,8R,9R,10S,13S,14S,17R)-13-methyl-17-((S)-1-(5-methyl-1H-tetrazol-1-yl)propan-2-yl)-3-propylhexadecahydro-1H-cyclopenta[a]phenanthren-3-ol] was run?
**A.** ≥ 10000 nM

**Q.** How did the IC50 turn out when CC[C@@]1(O)CC[C@H]2[C@@H](CC[C@@H]3[C@@H]2CC[C@]2(C)[C@@H]([C@@H](C)Cn4nnc(C)n4)CC[C@@H]32)C1 [Example 333, (3R,5S,8R,9R,10S,13S,14S,17R)-3-ethyl-13-methyl-17-((R)-1-(5-methyl-2H-tetrazol-2-yl)propan-2-yl)hexadecahydro-1H-cyclopenta[a]phenanthren-3-ol] was run?
**A.** 100 to 1000 nM

**Q.** How did the IC50 turn out when CC[C@@]1(O)CC[C@H]2[C@@H](CC[C@@H]3[C@@H]2CC[C@]2(C)[C@@H]([C@H](C)Cn4nnc(C)n4)CC[C@@H]32)C1 [Example 334, (3R,5S,8R,9R,10S,13S,14S,17R)-3-ethyl-13-methyl-17-((S)-1-(5-methyl-2H-tetrazol-2-yl)propan-2-yl)hexadecahydro-1H-cyclopenta[a]phenanthren-3-ol] was run?
**A.** ≥ 10000 nM

**Q.** For CC[C@@]1(O)CC[C@H]2[C@@H](CC[C@@H]3[C@@H]2CC[C@]2(C)[C@@H]([C@@H](C)Cn4nnnc4C)CC[C@@H]32)C1 [Example 335, (3R,5S,8R,9R,10S,13S,14S,17R)-3-ethyl-13-methyl-17-((R)-1-(5-methyl-1H-tetrazol-1-yl)propan-2-yl)hexadecahydro-1H-cyclopenta[a]phenanthren-3-ol], which IC50 is on record?
**A.** 100 to 1000 nM

**Q.** How did the IC50 turn out when CC[C@@]1(O)CC[C@H]2[C@@H](CC[C@@H]3[C@@H]2CC[C@]2(C)[C@@H]([C@H](C)Cn4nnnc4C)CC[C@@H]32)C1 [Example 336, (3R,5S,8R,9R,10S,13S,14S,17R)-3-ethyl-13-methyl-17-((S)-1-(5-methyl-1H-tetrazol-1-yl)propan-2-yl)hexadecahydro-1H-cyclopenta[a]phenanthren-3-ol] was run?
**A.** ≥ 10000 nM

**Q.** Which IC50 does the source give for CCC[C@@]1(O)CC[C@@]2(C)[C@H](CC[C@@H]3[C@@H]2[C@H](O)C[C@]2(C)[C@@H]([C@@H](C)Cn4cc(C#N)cn4)CC[C@@H]32)C1 [Example 337, 1-((R)-2-((3R,5R,8S,9S,10S,11R,13S,14S,17R)-3,11-dihydroxy-10,13-dimethyl-3-propylhexadecahydro-1H-cyclopenta[a]phenanthren-17-yl)propyl)-1H-pyrazole-4-carbonitrile] here?
**A.** 100 to 1000 nM

**Q.** With CCC[C@@]1(O)CC[C@@]2(C)[C@H](CC[C@@H]3[C@@H]2[C@H](O)C[C@]2(C)[C@@H]([C@H](C)Cn4cc(C#N)cn4)CC[C@@H]32)C1 [Example 338, 1-((S)-2-((3R,5R,8S,9S,10S,11R,13S,14S,17R)-3,11-dihydroxy-10,13-dimethyl-3-propylhexadecahydro-1H-cyclopenta[a]phenanthren-17-yl)propyl)-1H-pyrazole-4-carbonitrile] as the compound, how does the IC50 read?
**A.** 100 to 1000 nM

**Q.** For C[C@H](Cn1cc(C#N)cn1)[C@H]1CC[C@H]2[C@@H]3CC[C@@H]4C[C@@](O)(C5CC5)CC[C@@H]4[C@H]3CC[C@]12C [Example 342, 1-((S)-2-((3R,5R,8R,9R,10S,13S,14S,17R)-3-cyclopropyl-3-hydroxy-13-methylhexadecahydro-1H-cyclopenta[a]phenanthren-17-yl)propyl)-1H-pyrazole-4-carbonitrile], which IC50 is on record?
**A.** 100 to 1000 nM

**Q.** How did the IC50 turn out when CC(C)[C@@]1(O)CC[C@H]2[C@H](CC[C@@H]3[C@@H]2CC[C@]2(C)[C@@H]([C@@H](C)Cn4cc(C#N)cn4)CC[C@@H]32)C1 [Example 343, 1-((R)-2-((3R,5R,8R,9R,10S,13S,14S,17R)-3-hydroxy-3-isopropyl-13-methylhexadecahydro-1H-cyclopenta[a]phenanthren-17-yl)propyl)-1H-pyrazole-4-carbonitrile] was run?
**A.** 100 to 1000 nM

**Q.** CC(C)[C@@]1(O)CC[C@H]2[C@H](CC[C@@H]3[C@@H]2CC[C@]2(C)[C@@H]([C@H](C)Cn4cc(C#N)cn4)CC[C@@H]32)C1 [Example 344, 1-((S)-2-((3R,5R,8R,9R,10S,13S,14S,17R)-3-hydroxy-3-isopropyl-13-methylhexadecahydro-1H-cyclopenta[a]phenanthren-17-yl)propyl)-1H-pyrazole-4-carbonitrile] was tested. Which IC50 did it give?
**A.** ≥ 10000 nM

**Q.** For C[C@@H](Cn1cc(C#N)cn1)[C@@]1(O)CC[C@H]2[C@@H]3CC[C@@H]4C[C@](C)(O)CC[C@@H]4[C@H]3CC[C@@]21C [Example 345, 1-((S)-2-((3R,5R,8R,9R,10S,13S,14S,17S)-3,17-dihydroxy-3,13-dimethylhexadecahydro-1H-cyclopenta[a]phenanthren-17-yl)propyl)-1H-pyrazole-4-carbonitrile], which IC50 is on record?
**A.** 1000 to 10000 nM

**Q.** For C[C@H](Cn1cc(C#N)cn1)[C@@]1(O)CC[C@H]2[C@@H]3CC[C@@H]4C[C@](C)(O)CC[C@@H]4[C@H]3CC[C@@]21C [Example 346, 1-((R)-2-((3R,5R,8R,9R,10S,13S,14S,17S)-3,17-dihydroxy-3,13-dimethylhexadecahydro-1H-cyclopenta[a]phenanthren-17-yl)propyl)-1H-pyrazole-4-carbonitrile], which IC50 is on record?
**A.** 1000 to 10000 nM

**Q.** CCC[C@@]1(O)CC[C@H]2[C@H](CC[C@@H]3[C@@H]2CC[C@@]2(C)[C@H]3CC[C@]2(O)[C@@H](C)Cn2cc(C#N)cn2)C1 [Example 347, 1-((S)-2-((3R,5R,8R,9R,10S,13S,14S,17S)-3,17-dihydroxy-13-methyl-3-propylhexadecahydro-1H-cyclopenta[a]phenanthren-17-yl)propyl)-1H-pyrazole-4-carbonitrile] was tested. Which IC50 did it give?
**A.** 1000 to 10000 nM

**Q.** How did the IC50 turn out when CCC[C@@]1(O)CC[C@H]2[C@H](CC[C@@H]3[C@@H]2CC[C@@]2(C)[C@H]3CC[C@]2(O)[C@H](C)Cn2cc(C#N)cn2)C1 [Example 348, 1-((R)-2-((3R,5R,8R,9R,10S,13S,14S,17S)-3,17-dihydroxy-13-methyl-3-propylhexadecahydro-1H-cyclopenta[a]phenanthren-17-yl)propyl)-1H-pyrazole-4-carbonitrile] was run?
**A.** 1000 to 10000 nM

**Q.** For CCC[C@@]1(O)CC[C@H]2[C@@H](CC[C@@H]3[C@@H]2CC[C@]2(C)[C@@H]([C@@H](C)Cn4cc(C#N)cn4)CC[C@@H]32)C1 [Example 349, 1-((R)-2-((3R,5S,8R,9R,10S,13S,14S,17R)-3-hydroxy-13-methyl-3-propylhexadecahydro-1H-cyclopenta[a]phenanthren-17-yl)propyl)-1H-pyrazole-4-carbonitrile], which IC50 is on record?
**A.** ≥ 10000 nM

**Q.** CCC[C@@]1(O)CC[C@H]2[C@@H](CC[C@@H]3[C@@H]2CC[C@]2(C)[C@@H]([C@H](C)Cn4cc(C#N)cn4)CC[C@@H]32)C1 [Example 350, 1-((S)-2-((3R,5S,8R,9R,10S,13S,14S,17R)-3-hydroxy-13-methyl-3-propylhexadecahydro-1H-cyclopenta[a]phenanthren-17-yl)propyl)-1H-pyrazole-4-carbonitrile] was tested. Which IC50 did it give?
**A.** ≥ 10000 nM

**Q.** Which IC50 does the source give for COC[C@@]1(O)CC[C@@]2(C)[C@H](CC[C@@H]3[C@@H]2CC[C@@]2(C)[C@H]3CC[C@]2(O)[C@@H](C)Cn2cc(C#N)cn2)C1 [Example 351, 1-((S)-2-((3R,5R,8R,9S,10S,13S,14S,17S)-3,17-dihydroxy-3-(methoxymethyl)-10,13-dimethylhexadecahydro-1H-cyclopenta[a]phenanthren-17-yl)propyl)-1H-pyrazole-4-carbonitrile] here?
**A.** 1000 to 10000 nM

**Q.** How did the IC50 turn out when COC[C@@]1(O)CC[C@@]2(C)[C@H](CC[C@@H]3[C@@H]2CC[C@@]2(C)[C@H]3CC[C@]2(O)[C@H](C)Cn2cc(C#N)cn2)C1 [Example 352, 1-((R)-2-((3R,5R,8R,9S,10S,13S,14S,17S)-3,17-dihydroxy-3-(methoxymethyl)-10,13-dimethylhexadecahydro-1H-cyclopenta[a]phenanthren-17-yl)propyl)-1H-pyrazole-4-carbonitrile] was run?
**A.** 1000 to 10000 nM

**Q.** COC[C@@]1(O)CC[C@H]2[C@H](CC[C@@H]3[C@@H]2CC[C@@]2(C)[C@H]3CC[C@]2(O)[C@H](C)Cn2cc(C#N)cn2)C1 [Example 353] was tested. Which IC50 did it give?
**A.** 1000 to 10000 nM

**Q.** With COC[C@@]1(O)CC[C@H]2[C@H](CC[C@@H]3[C@@H]2CC[C@@]2(C)[C@H]3CC[C@]2(O)[C@@H](C)Cn2cc(C#N)cn2)C1 [Example 354] as the compound, how does the IC50 read?
**A.** 1000 to 10000 nM

**Q.** C[C@@]1(O)CC[C@H]2[C@H](CC[C@@H]3[C@@H]2CC[C@]2(C)[C@@H]([C@H](C#N)Cn4cc(C#N)cn4)CC[C@@H]32)C1 [Example 355, 1-((S)-2-cyano-2-((3R,5R,8R,9R,10S,13S,14S,17R)-3-hydroxy-3,13-dimethylhexadecahydro-1H-cyclopenta[a]phenanthren-17-yl)ethyl)-1H-pyrazole-4-carbonitrile] was tested. Which IC50 did it give?
**A.** < 100 nM

**Q.** How did the IC50 turn out when C[C@@]1(O)CC[C@H]2[C@H](CC[C@@H]3[C@@H]2CC[C@]2(C)[C@@H]([C@@H](C#N)Cn4cc(C#N)cn4)CC[C@@H]32)C1 [Example 356, 1-((R)-2-cyano-2-((3R,5R,8R,9R,10S,13S,14S,17R)-3-hydroxy-3,13-dimethylhexadecahydro-1H-cyclopenta[a]phenanthren-17-yl)ethyl)-1H-pyrazole-4-carbonitrile] was run?
**A.** < 100 nM
